The text below walks through data of ChEMBL document CHEMBL1133542, “Adenosine deaminase inhibitors: synthesis and biological evaluation of unsaturated, aromatic, and oxo derivatives of (+)-erythro-9-(2'S-hydroxy-3'R-nonyl)adenine [(+)-EHNA]” (J Med Chem, 2000).

In general, Ki refers to the equilibrium dissociation constant of an inhibitor or competing ligand from its target. Low values mean tighter binding, high ones weaker binding.

The target of this assay is T1, Adenosine deaminase (Bos taurus, UniProt P56658).
T1 sequence (P56658 whole entry): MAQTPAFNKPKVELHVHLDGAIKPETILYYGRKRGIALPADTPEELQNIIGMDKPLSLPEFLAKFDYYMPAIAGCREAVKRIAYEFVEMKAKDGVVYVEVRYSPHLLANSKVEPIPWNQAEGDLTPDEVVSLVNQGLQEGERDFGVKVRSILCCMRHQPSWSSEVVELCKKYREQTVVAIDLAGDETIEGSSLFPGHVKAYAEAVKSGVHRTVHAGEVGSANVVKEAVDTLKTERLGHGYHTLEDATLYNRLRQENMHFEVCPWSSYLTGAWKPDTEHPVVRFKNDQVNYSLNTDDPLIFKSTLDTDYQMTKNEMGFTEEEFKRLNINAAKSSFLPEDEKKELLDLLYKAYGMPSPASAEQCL
Description: Inhibition of Adenosine deaminase (ADA) of calf intestine

In turn, `CCCCOC[C@H]([C@H](C)O)n1cnc2c(N)ncnc21` returned a Ki of 123 nM.
`C[C@H](O)[C@@H](COCCc1ccccc1)n1cnc2c(N)ncnc21` yielded a Ki of 93.1 nM.
